# Measurements taken from patent US6784137B2, “6-aryl-4-aminopicolinates and their use as herbicides” (Dow AgroSciences LLC, priority 2001, dated 2004).
# Where two headings read alike, the source gives them in different places.
# Experiments:
# [1] = system: Barnyardgrass (Echinochloa crus-galli); assay: Postemergence herbicidal activity, greenhouse spray; assay type: in vivo; settings: Echinochloa crus-galli, post-emergence, 336 h, visual score after 2 weeks, read-out: Post-emergent % control ECHCG; for pest or weed control at 500 ppm / pest or weed control at 250 ppm: Table 1; for pest or weed control at 500 ppm: rate 500 ppm; for pest or weed control at 250 ppm: rate 250 ppm
# Procedure, shortened: (§1)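 Plants grown 7-21 days in a greenhouse (~15 hr photoperiod, about 23-29° C day/22-28° C night) and treated at the first or second true leaf stage. Compounds in acetone:DMSO 97:3 were diluted into an aqueous acetone/isopropyl alcohol/crop oil/Triton X-155 carrier and sprayed to thorough coverage. Controls received carrier alone.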
# [2] = system: Cocklebur (Xanthium strumarium); assay: as above; assay type: in vivo; settings: Xanthium strumarium, post-emergence, 336 h, visual score after 2 weeks, read-out: Post-emergent % control XANST; for pest or weed control at 500 ppm / pest or weed control at 250 ppm: Table 1; for pest or weed control at 500 ppm: rate 500 ppm, 0 no injury, 100 complete kill; for pest or weed control at 250 ppm: rate 250 ppm
# Procedure, shortened: as §1
# [3] = system: Lambsquarter (Chenopodium album); assay: as above; assay type: in vivo; settings: Chenopodium album, post-emergence, 336 h, visual score after 2 weeks, read-out: Post-emergent % control CHEAL; for pest or weed control at 500 ppm / pest or weed control at 250 ppm: Table 1; for pest or weed control at 500 ppm: rate 500 ppm; for pest or weed control at 250 ppm: rate 250 ppm
# Procedure, shortened: as §1
# [4] = system: Pigweed (redroot) (Amaranthus retroflexus); assay: as above; assay type: in vivo; settings: visual score after 2 weeks; for pest or weed control at 62.5 µg/mL: Amaranthus retroflexus, post-emergence, 336 h, rate 62.5 (unit inferred), read-out: Post-emergent % control AMARE; for Post-emergent % control AMARE: rate 62.5 (unit not given)
# Procedure, shortened: as §1
# [5] = system: Yellow nutsedge (Cyperus esculentus); assay: as above; assay type: in vivo; settings: Cyperus, post-emergence, 336 h, visual score after 2 weeks, read-out: Post-emergent % control CYPES; for pest or weed control at 500 ppm / pest or weed control at 250 ppm: Table 1; for pest or weed control at 500 ppm: rate 500 ppm; for pest or weed control at 250 ppm: rate 250 ppm
# Procedure, shortened: as §1
# [6] = system: Wheat(var. Merica) (Triticum aestivum); assay: Postemergence herbicidal activity, selectivity to wheat; assay type: in vivo; settings: post-emergence, 336 h, Table 3, rate 62.5 (unit inferred), crop injury, read-out: Post-emergent % control TRZAS
# Method: (§2) Seeds of the desired test plant species were planted in Grace-Sierra MetroMix® 306 planting mixture, which typically has a pH of 6.0 to 6.8 and an organic matter content of about 30 percent, in plastic pots with a surface area of 64 square centimeters. When required to ensure good germination and healthy plants, a fungicide treatment and/or other chemical or physical treatment was applied. The plants were grown for 7-21 days in a greenhouse with an approximate 15 hr photoperiod which was maintained at about 23-29° C. during the day and 22-28° C. during the night. Nutrients and water were added on a regular basis and supplemental lighting was provided with overhead metal halide 1000-Watt lamps as necessary. The plants were employed for testing when they reached the first or second true leaf stage. A weighed amount, determined by the highest rate to be tested, of each test compound was placed in a 20 mL glass vial and was dissolved in 4 mL of a 97:3 v/v (volume/volume) mixture of acetone and dimethyl sulfoxide (DMSO) to obtain concentrated stock solutions. […] The concentrated stock solutions obtained were diluted with an aqueous mixture containing acetone, water, isopropyl alcohol, DMSO, At plus 411 F crop oil concentrate, and Triton X-155 surfactant in a 48.5:39:10:1.5:1.0:0.02 v/v ratio to obtain spray solutions of known concentration. The solutions containing the highest concentration to be tested were prepared by diluting 2 mL aliquots of the stock solution with 13 mL of the mixture and lower concentrations were prepared by serial dilution of the stock solution. Approximately 1.5 mL aliquots of each solution of known concentration were sprayed evenly onto each of the test plant pots using a DeVilbiss atomizer driven by compressed air pressure of […] (140 to 280 kiloPascals) to obtain thorough coverage of each plant. Control plants were sprayed in the same manner with the aqueous mixture. In this test an application rate of 1 ppm results in the application of approximately 1 g/Ha. The treated plants and control plants were placed in a greenhouse as described above and watered by sub-irrigation to prevent wash-off of the test compounds. After 2 weeks the condition of the test plants as compared with that of the untreated plants was determined visually and scored on a scale of 0 to 100 percent where 0 corresponds to no injury and 100 corresponds to complete kill.
# [7] = system: Corn (#14 3377) (Zea mays); assay: Postemergence herbicidal activity, selectivity to corn; assay type: in vivo; settings: post-emergence, 336 h, Table 4, rate 62.5 (unit inferred), crop injury, read-out: Post-emergent % control ZEAMX
# Method: as §2
# [8] = system: Crabgrass(large) (Digitaria sanguinalis); assay: Preemergence herbicidal activity, soil spray; assay type: in vivo; settings: Digitaria sanguinalis, pre-emergence, 504 h; Table 5; rate 560 ppm; visual score after 3 weeks; read-out: Pre-emergent % control DIGSA
# Procedure, shortened: (§3)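 Seeds sown in loam/sand (70:30) soil, pH ~8.1, ~1.5% organic matter; compounds in acetone/DMSO (97:3), diluted in water with 0.1% Tween 155, sprayed onto the soil surface before emergence. Pots kept in greenhouse, ~15 h photoperiod, about 23-29° C day/22-28° C night, top-irrigated.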
# [9] = system: Giant Foxtail (Setaria faberi); assay: Preemergence herbicidal activity, soil spray; assay type: in vivo; settings: Setaria faberi, pre-emergence, 504 h, Table 5; rate 560 ppm; visual score after 3 weeks; read-out: Pre-emergent % control SETFA
# Procedure, shortened: as §3
# [10] = system: Lambsquarter (Chenopodium album); assay: Preemergence herbicidal activity, soil spray; assay type: in vivo; settings: Chenopodium album, pre-emergence, 504 h; Table 5; rate 560 ppm; visual score after 3 weeks, 100 complete kill or no germination; read-out: Pre-emergent % control CHEAL
# Procedure, shortened: as §3
# [11] = system: Pigweed (redroot) (Amaranthus retroflexus); assay: Preemergence herbicidal activity, soil spray; assay type: in vivo; settings: Amaranthus retroflexus, pre-emergence, 504 h; Table 5; rate 560 ppm; visual score after 3 weeks; read-out: Pre-emergent % control AMARE
# Procedure, shortened: as §3
SMILES,melting point,pest or weed control at 500 ppm [1],pest or weed control at 500 ppm [2],pest or weed control at 500 ppm [3],pest or weed control at 62.5 µg/mL ([4]; Table 3),Post-emergent % control AMARE ([4]; Table 4),pest or weed control at 500 ppm [5],pest or weed control at 62.5 µg/mL [6],pest or weed control at 62.5 µg/mL [7],pest or weed control at 560 ppm [8],pest or weed control at 560 ppm [9],pest or weed control at 560 ppm [10],pest or weed control at 560 ppm [11],pest or weed control at 62.5 µg/mL ([4]; Table 4),other results
"COC(=O)c1nc(-c2ccc(C)c(C)c2)cc(N)c1Cl [Compound 12, methyl 4-amino-3-chloro-6-(3,4-dimethylphenyl)pyridine-2-carboxylate]",154 to 156 °C,95%,100%,95%,70%,70%,30%,0%,10%,40%,30%,98%,100%,–,–
"COC(=O)c1nc(-c2cccc(C)c2)cc(N)c1Cl [Compound 21, Methyl 4-amino-3-chloro-6-(3-methylphenyl)pyridine-2-carboxylate]",98 °C,–,–,–,70%,70%,–,10%,0%,100%,80%,100%,100%,–,pest or weed control at 250 ppm [1]: 0%; pest or weed control at 250 ppm [2]: 100%; pest or weed control at 250 ppm [3]: 100%; pest or weed control at 250 ppm [5]: 70%
"COC(=O)c1nc(-c2ccc(F)cc2)cc(N)c1Cl [Compound 43, Methyl 4-amino-3-chloro-6-(4-fluorophenyl)pyridine-2-carboxylate]",125 °C,95%,100%,100%,100%,100%,100%,10%,0%,100%,98%,100%,100%,–,–
"COC(=O)c1nc(-c2ccc(Cl)cc2)cc(NC(C)=O)c1Cl [Compound 53, Methyl 4-acetamido-3-chloro-6-(4-chlorophenyl)pyridine-2-carboxylate]",151 to 152 °C,–,–,–,70%,70%,–,0%,10%,100%,100%,100%,100%,–,–
"COC(=O)c1nc(-c2ccc(F)cc2Cl)cc(N)c1Cl [Compound 58, Methyl 4-amino-3-chloro-6-(2-chloro-4-fluorophenyl)pyridine-2-carboxylate]",155 to 157 °C,70%,100%,100%,–,–,70%,–,0%,–,–,–,–,100%,–

# Continued, in another order:
melting point,SMILES,pest or weed control at 500 ppm [1],pest or weed control at 500 ppm [2],pest or weed control at 500 ppm [3],pest or weed control at 62.5 µg/mL ([4]; Table 3),Post-emergent % control AMARE ([4]; Table 4),pest or weed control at 500 ppm [5],pest or weed control at 62.5 µg/mL [6],pest or weed control at 62.5 µg/mL [7],pest or weed control at 560 ppm [8],pest or weed control at 560 ppm [9],pest or weed control at 560 ppm [10],pest or weed control at 560 ppm [11],pest or weed control at 62.5 µg/mL ([4]; Table 4),other results
114 to 115 °C,"COC(=O)c1nc(-c2ccc(Cl)cc2C)cc(N)c1Cl [Compound 45, Methyl 4-amino-3-chloro-6-(4-chloro-2-methylphenyl)pyridine-2-carboxylate]",–,–,–,–,–,–,–,0%,–,–,–,–,100%,–
176 to 177 °C,"Nc1cc(-c2ccc(Cl)cc2Cl)nc(C(=O)O)c1Cl [Compound 146, 4-Amino-3-chloro-6-(2,4-dichlorophenyl)pyridine-2-carboxylic acid]",–,–,–,–,–,–,–,0%,80%,90%,100%,100%,100%,"pest or weed control at 250 ppm [1]: 85%; pest or weed control at 125 ppm ([1]; Table 2, rate 125 ppm): 75%; pest or weed control at 250 ppm [2]: 100%; pest or weed control at 125 ppm ([2]; Table 2, rate 125 ppm): 100%; pest or weed control at 250 ppm [3]: 100%; pest or weed control at 125 ppm ([3]; Table 2, rate 125 ppm): 100%; pest or weed control at 250 ppm [5]: 98%; pest or weed control at 125 ppm ([5]; Table 2, rate 125 ppm): 95%"
153 to 154 °C,"Cc1cc(Cl)ccc1-c1cc(N)c(Cl)c(C(=O)O)n1 [Compound 155, 4-Amino-3-chloro-6-(4-chloro-2-methylphenyl)pyridine-2-carboxylic acid]",–,–,–,–,–,–,–,0%,–,–,–,–,100%,–
